The values that follow are results of earlier work, collected in US20240418706A1, “QUANTIFICATION OF CIRCULATING REGENERATIVE AND ENDOTHELIAL PROGENITOR CELLS AS PREDICTORS OF HEALTH STATUS” (priority 2022, published 2024).

The test system of data set [1] is circulating EPC. Particulars: lipid lowering therapy.
The conditions of data set [2]: >17,000 healthy persons without hyperlipidemia but with elevated high-sensitivity C-reactive protein.
In data set [3] the test system is circulating EPC. Particulars: in vivo.
The test system of data set [4] is endothelial responsiveness.
The conditions of data set [5]: 6 days of G-CSF at 10 μg/kg.
The conditions of data set [6]: 114 patients, 56 treated and 58 control.
For data set [7] the following is noted: 41 patients with large anterior wall AMI.
The test system of another data set is EPC. Particulars: in vivo.

Like-named read-outs stand apart in the source and are kept apart here.

Take `CC(C)c1c(C(=O)Nc2ccccc2)c(-c2ccccc2)c(-c2ccc(F)cc2)n1CC[C@@H](O)C[C@@H](O)CC(=O)O` [atorvastatin]: in the data set on circulating EPC [1], the “circulating EPC” value is reported as “increase circulating EPC” and the oxidative stress entry was “reduced oxidative stress”.

With `CC(C)c1nc(N(C)S(C)(=O)=O)nc(-c2ccc(F)cc2)c1/C=C/[C@@H](O)C[C@@H](O)CC(=O)O` [Crestor], in data set [2], the CRP levels result is listed as “lowering CRP levels” and the “incidence of major cardiovascular incidents” value is listed as “significantly reduced”. Moreover, in the data set on circulating EPC [3], the “circulating EPC levels” value is recorded as “increase circulating EPC levels”.

With “growth hormone: growth hormone, used in "antiaging medicine"”, the endothelial responsiveness entry in data set [4] (healthy volunteers) and in data set [4] (patients with congestive heart failure) was “improve endothelial responsiveness” in each case.

B1: G-CSF: Granulocyte colony stimulating factor, used clinically for mobilization of hematopoietic stem cells (protein, UniProt P09919 31-207, looked up)
Granulocyte …: TPLGPASSLPQSFLLKCLEQVRKIQGDGAALQEKLVSECATYKLCHPEELVLLGHSLGIPWAPLSSCPSQALQLAGCLSQLHSGLFLYQGLLQALEGISPELGPTLDTLQLDVADFATTIWQQMEELGMAPALQPTQGAMPAFASAFQRRAGGVLVASHLQSFLEVSYRVLRHLAQP
For B1, in data set [5] (four months after the infarct, sustained over a year, compared to controls), the “myocardial wall at the area of infarct” value is on record as “thicker myocardial wall”. Also, in data set [5] (in comparison to controls), the ejection fraction entry was “Statistically significant improvements” and the pathological remodeling result was “inhibition of pathological remodeling”. Further, the “infarct size, left ventricular function, or coronary restenosis” value in data set [6] is listed as “no influence”. Moreover, in data set [7], the LVEF result is “improvement in LVEF” and the pathological remodeling result is given as “diminished pathological remodeling”. Further, the “mobilization of EPC” value with EPC is “stimulates mobilization of EPC”.
